Experiment [1] deals with anti-digoxin 26-10 murine monoclonal antibody. The conditions noted are these: literature (Schildbach et al., 1993); cited from earlier work.
Experiment [2] concerns anti-digoxin 26-10 scFv(Dig) variant HC9ST (heavy chain mutant). Format: binding, murine. The conditions noted are these: for kon: hapten-BSA conjugate immobilized on CM5 chip. Here is the method: (§1) Single chain Fv mutants were produced and purified according to Burks (Burks and Iverson, 1995). The scFv genes from second round overlap extension PCR were ligated into pET25b plasmid and transformed into E. Coli BL21 (DE3) strain. Inclusion bodies that consist of scFvs were isolated from cell lysates and dissolved in 8 M urea. Soluble scFvs were purified by a metal chelating column (IMAC) and refolded by dialyzing against Tris buffer (50 mM Tris. HCl, pH 7.4, 500 mM KCl, 10% glycerol). Protein concentrations were determined by OD280 (Σ=44850) (Pace et al., 1995; Nieba et al., 1989). For the kinetics measurement, antibodies were further purified by a size exclusion gel filtration column Sepharose-75 (Pharmacia Biosensor AB, Sweden) to remove any dimeric or polymeric proteins.
(§2) The digoxin-BSA, digitoxin-BSA, digoxigenin-BSA and ouabain-BSA conjugates were immobilized on the surface of a sensor chip CM5 (approximately 400 RU) following the standard protocol from Pharmacia Biosensor. All kinetics experiments were performed in buffer containing 150 mM NaCl, 10 mM HEPES, 3.4 mM EDTA, and 0.005% P20, pH 7.4 at 25° C. with a flowrate of 60 μl/min (Myszka et al., 1997; Zeder-Lutz et al., 1997; Oddie et al., 1997). ScFv proteins over the concentration range of 25 nM to 400 nM were added to the chip for the association rate measurements. To prevent the rebinding of antibodies on the chip surface, soluble haptens (up to 1 mM) were added into elution buffer for the dissociation rate measurements (Schier et al., 1996). The antibody bound chip was regenerated by 50% ethylene glycol, pH 10. The values of association and dissociation rate of antibodies were calculated using BIAevaluation software from Pharmacia Biosensor. kon was determined from a plot of (ln(dR/dt))/t versus concentration (Karlson et al., 1991). koff was determined from a plot of ln(Ro/R) versus time.
(§3) In additional studies, values for the association and dissociation rate constants (kon and koff, respectively) were measured using a BIAcore 1000 for the wild-type and 14 selected mutant scFv antibodies. […] The selected scFv antibodies were expressed and purified following the procedure described by Burks and Iverson (1995). In each case, care was taken to insure that the kinetic values measured on the BlAcore are free of artifacts due to rebinding or avidity effects arising from multimeric scFvs.

The test system of experiment [3] is anti-digoxin 26-10 scFv(Dig) variant LC94F (light chain residue 94→Phe). Format: binding, murine. The conditions noted are these: for kon: hapten-BSA conjugate immobilized on CM5 chip. Here is the method:
as §1, §2, §3

For experiment [4], the system named is anti-digoxin 26-10 scFv(Dig) variant HC100R (H:Trp-100→Arg). In kind it is binding, murine. The note with it: for kon: hapten-BSA conjugate immobilized on CM5 chip. On the procedure: as §1, §2, §3
Experiment [5] deals with anti-digoxin 26-10 scFv(Dig) variant LC94Y (L:Val-94→Tyr). Format: binding, murine. The conditions noted are these: for kon: hapten-BSA conjugate immobilized on CM5 chip. Here is the method:
as §1, §2, §3

For experiment [6], the system named is anti-digoxin 26-10 scFv(Dig) variant HC100K (H:Trp-100→Lys). In kind it is binding, murine. The note with it: for kon: hapten-BSA conjugate immobilized on CM5 chip. On the procedure:
as §1, §2, §3

Experiment [7] deals with anti-digoxin 26-10 scFv(Dig) variant HC100H (H:Trp-100→His). Format: binding, murine. The conditions noted are these: for kon: hapten-BSA conjugate immobilized on CM5 chip. Here is the method:
as §1, §2, §3

The test system of experiment [8] is anti-digoxin 26-10 scFv(Dig) variant HC50F (H:Tyr50→Phe). In kind it is binding, murine. The conditions noted are these: for kon: hapten-BSA conjugate immobilized on CM5 chip. On the procedure: as §1, §2, §3
For experiment [9], the target named is anti-digoxin 26-10 scFv(Dig) variant LC96F (L:Pro-96→Phe). Format: binding, murine. Here is the method: as §1, §2, §3
Experiment [10] relates to anti-digoxin single chain Fv scFv(Dig) derived from anti-digoxin 26-10 murine monoclonal antibody, wild type (WT), SEQ ID NO:132. In kind it is binding. The note with it: for kon: hapten-BSA conjugate immobilized on CM5 chip. Here is the method: as §1, §2, §3
Where [11] appears, read: SPR, hapten-BSA conjugate on chip, pH 7.4, 25° C.
The mark [12] stands for this setting: SPR, hapten-BSA conjugate on chip, soluble hapten in elution buffer, pH 7.4, 25° C.

Like-named read-outs stand apart in the source and are kept apart here.

What is called kon is the second-order rate constant of association. Read a high kon as fast association. `C[C@H]1O[C@@H](O[C@H]2[C@@H](O)C[C@H](O[C@H]3[C@@H](O)C[C@H](O[C@H]4CC[C@@]5(C)[C@H](CC[C@@H]6[C@@H]5CC[C@]5(C)[C@@H](C7=CC(=O)OC7)CC[C@]65O)C4)O[C@@H]3C)O[C@@H]2C)C[C@H](O)[C@@H]1O` [Digitoxin, digitoxin]: the Ka entry in [1] was “approximately 9×10^9 M^-1”; in experiment [2] (setting [11]), 9e+06 M⁻¹; in experiment [6] (setting [11]) it was 0 M⁻¹; in experiment [7] (setting [11]), 0 M⁻¹; in experiment [9] (setting [11]) it was 8.4e+07 M⁻¹. The kon in experiment [2] (SPR, pH 7.4, 25° C.) turned out to be 1e+06 M⁻¹ s⁻¹; in experiment [3] (SPR, pH 7.4, 25° C.), 1.3e+06 M⁻¹ s⁻¹; in [4] (SPR, pH 7.4, 25° C.) it was 930000 M⁻¹ s⁻¹; in [5] (SPR, pH 7.4, 25° C.) it was 1.15e+06 M⁻¹ s⁻¹; in [8] (SPR, pH 7.4, 25° C.), 960000 M⁻¹ s⁻¹; in experiment [10] (SPR, pH 7.4, 25° C.), 1e+06 M⁻¹ s⁻¹. The koff in [2] (setting [12]) is 0.11; in experiment [3] (setting [12]), 1.3 × 10^-3; in [4] (setting [12]), 8.2 × 10^-3; in experiment [5] (setting [12]), 2.7 × 10^-3; in experiment [6] (setting [12]) it was 0.09; in [7] (setting [12]), 9.7 × 10^-3. In addition, the koff was 1.7 × 10^-3 in experiment [8] (setting [12]), 0.014 in [9] (setting [12]) and 1.3 × 10^-3 in experiment [10] (setting [12]).

`C[C@@H]1O[C@@H](O[C@H]2C[C@@H](O)[C@]3(CO)[C@H]4[C@H](O)C[C@]5(C)[C@@H](C6=CC(=O)OC6)CC[C@]5(O)[C@@H]4CC[C@]3(O)C2)[C@H](O)[C@H](O)[C@H]1O` [Ouabain, ouabain]: the “fold lower affinity than for digoxin, digitoxin and digoxigenin” value in experiment [1] was 42 fold. In addition, the on-rate (kon) in [2] (SPR, pH 7.4, 25° C.) worked out at 100000 M⁻¹ s⁻¹; in experiment [3] (SPR, pH 7.4, 25° C.) it was 1e+06 M⁻¹ s⁻¹; in experiment [4] (SPR, pH 7.4, 25° C.) it was 1e+06 M⁻¹ s⁻¹; in [5] (SPR, pH 7.4, 25° C.), 1e+06 M⁻¹ s⁻¹; in experiment [7] (SPR, pH 7.4, 25° C.), 1e+06 M⁻¹ s⁻¹; in experiment [8] (SPR, pH 7.4, 25° C.), 1e+06 M⁻¹ s⁻¹. Moreover, in [10] (SPR, pH 7.4, 25° C.), the on-rate (kon) came out at 1e+06 M⁻¹ s⁻¹. Further, the Ka is 6.7e+06 M⁻¹ in experiment [2] (setting [11]), 8.3e+06 M⁻¹ in experiment [4] (setting [11]), 1.1e+07 M⁻¹ in experiment [7] (setting [11]) and 7.9e+07 M⁻¹ in experiment [8] (setting [11]). In addition, the koff is on record as 0.12 in experiment [2] (setting [12]); 1.0 × 10^-2 in experiment [3] (setting [12]); 0.12 in [4] (setting [12]); 1.7 × 10^-2 in [5] (setting [12]); 0.60 in experiment [6] (setting [12]); 0.09 in experiment [7] (setting [12]). The koff in [8] (setting [12]) is recorded as 0.013; in experiment [9] (setting [12]), 0.3; in experiment [10] (setting [12]) it was 1.5 × 10^-2.

On to `C[C@]12CC[C@H](O)C[C@H]1CC[C@@H]1[C@@H]2CC[C@]2(C)[C@@H](C3=CC(=O)OC3)CC[C@]12O` [Digitoxigenin], for which the Ka in [2] (setting [11]) is 7e+08 M⁻¹; in [4] (setting [11]), 4.2e+07 M⁻¹; in [7] (setting [11]), 1e+08 M⁻¹; in experiment [8] (setting [11]), 4.5e+08 M⁻¹. Moreover, the koff in [2] (setting [12]) is recorded as 1.00; in experiment [3] (setting [12]), 8.9 × 10^-2; in experiment [4] (setting [12]) it was 1.7 × 10^-1; in experiment [5] (setting [12]) it was 1.8 × 10^-1; in experiment [6] (setting [12]) it was 1.48; in experiment [7] (setting [12]), 9.7 × 10^-2. For the same compound, the koff in experiment [8] (setting [12]) was 2.2 × 10^-2; in experiment [9] (setting [12]) it was 0.169; in [10] (setting [12]) it was 2.3 × 10^-2. Further, the kon in experiment [3] (SPR, pH 7.4, 25° C.) is 1e+06 M⁻¹ s⁻¹; in experiment [5] (SPR, pH 7.4, 25° C.) it was 1.1e+06 M⁻¹ s⁻¹; in [6] (SPR, pH 7.4, 25° C.), 1e+06 M⁻¹ s⁻¹; in experiment [7] (SPR, pH 7.4, 25° C.), 1e+06 M⁻¹ s⁻¹; in experiment [8] (SPR, pH 7.4, 25° C.), 1e+06 M⁻¹ s⁻¹; in experiment [10] (SPR, pH 7.4, 25° C.), 1e+06 M⁻¹ s⁻¹.

For the compound `C[C@H]1O[C@@H](O[C@H]2[C@@H](O)C[C@H](O[C@H]3[C@@H](O)C[C@H](O[C@H]4CC[C@@]5(C)[C@H](CC[C@@H]6[C@@H]5C[C@@H](O)[C@]5(C)[C@@H](C7=CC(=O)OC7)CC[C@]65O)C4)O[C@@H]3C)O[C@@H]2C)C[C@H](O)[C@@H]1O` [Digoxin, digoxin], the figures for the Ka entry in experiment [1] and in experiment [9] (setting [11]) were “approximately 9×10^9 M^-1” and 500000 M⁻¹, respectively. Further, the kon in experiment [2] (SPR, pH 7.4, 25° C.) turned out to be 1.4e+06 M⁻¹ s⁻¹; in experiment [3] (SPR, pH 7.4, 25° C.), 1.2e+06 M⁻¹ s⁻¹; in experiment [4] (SPR, pH 7.4, 25° C.), 1.3e+06 M⁻¹ s⁻¹; in experiment [5] (SPR, pH 7.4, 25° C.), 1.2e+06 M⁻¹ s⁻¹; in [6] (SPR, pH 7.4, 25° C.), 940000 M⁻¹ s⁻¹; in [7] (SPR, pH 7.4, 25° C.) it was 1e+06 M⁻¹ s⁻¹. Moreover, the kon in experiment [8] (SPR, pH 7.4, 25° C.) was found to be 1.5e+06 M⁻¹ s⁻¹; in [9] (SPR, hapten-BSA conjugate immobilized on CM5 chip, pH 7.4, 25° C.) it was 1e+08 M⁻¹ s⁻¹; in [10] (SPR, pH 7.4, 25° C.) it was 1.2e+08 M⁻¹ s⁻¹. Further, the koff was 5.4 × 10^-3 in [2] (pH 7.4); 1.9 × 10^-3 in experiment [3] (pH 7.4); 5.0 × 10^-3 in experiment [4] (pH 7.4); 5.2 × 10^-3 in [5] (pH 7.4); 8.0 × 10^-2 in experiment [6] (pH 7.4); 2.0 × 10^-3 in experiment [7] (pH 7.4). Moreover, the results for the koff in experiment [8] (pH 7.4), in [9] (pH 7.4) and in experiment [10] (pH 7.4) were 5.8 × 10^-4, 2 and 7.0 × 10^-4, respectively.

For `C[C@]12CC[C@H](O)C[C@H]1CC[C@@H]1[C@@H]2C[C@@H](O)[C@]2(C)[C@@H](C3=CC(=O)OC3)CC[C@]12O` [digoxigenin], the Ka result in [1] was “approximately 9×10^9 M^-1”.

(Values after patent publication US6180341A, “In vitro scanning saturation mutagenesis of proteins” (priority 1998, dated 2001).)
